Here are results for 4 compounds from ChEMBL document CHEMBL3044847, “Evaluation of systemic acquired resistance inducers for control of Phytophthora capsici on squash” (Crop Prot, 2009).

The source made the active and inactive calls. The calls are words filed in the database; no cut-off is given here.

Data set [1] relates to Phytophthora capsici. In words: Insecticidal activity against Phytophthora capsici assessed as inhibition of sporangium production at 25 to 1000 ug/ml after 4 days. Type of data set: functional, organism-based.
For data set [2], the system named is Phytophthora capsici. In words: Insecticidal activity against Phytophthora capsici assessed as inhibition of zoospore germination at 25 to 1000 ug/ml after 4 days with 16 hr photoperiod. Type of data set: functional, organism-based.
The subject of data set [3] is Phytophthora capsici. The data set is described as follows: Insecticidal activity against Phytophthora capsici assessed as inhibition of mycelial growth by measuring perpendicular colony diameter at 25 to 2000 ug/ml after 8 days. It is filed as functional, organism-based.
The test system of data set [4] is Cucurbita pepo. The data set is described as follows: Phytotoxicity in Cucurbita pepo (pumpkin) assessed as effect on host weight and height under greenhouse condition at 50 ug/ml. It is filed as organism-based. The settings on record: in vivo.
Data set [5] has as its system Cucurbita pepo. In words: Toxicity in Cucurbita pepo (pumpkin) assessed as effect on host weight and height under greenhouse condition at 25 to 50 ug/ml. The settings on record: in vivo. Type of data set: organism-based.
Data set [6] concerns Phytophthora capsici. In words: Insecticidal activity against Phytophthora capsici in Cucurbita pepo assessed as effect on host weight and height under greenhouse condition at 25 to 50 ug/ml. Type of data set: functional, organism-based.
In data set [7] the test system is Phytophthora capsici. In words: Insecticidal activity against 10^3 spores/ml of Phytophthora capsici in Cucurbita pepo assessed as reduction of disease severity under greenhouse condition at 25 to 50 ug/ml applied as foliar spray after 1 week. Type of data set: functional, organism-based.
The test system of data set [8] is Phytophthora capsici. The data set is described as follows: Insecticidal activity against Phytophthora capsici in Cucurbita pepo assessed as reduction of disease severity under greenhouse condition at 25 to 50 ug/ml after 1 week. It is filed as functional, organism-based.
The subject of data set [9] is Phytophthora capsici. In words: Insecticidal activity against Phytophthora capsici assessed as inhibition of zoospore germination at 500 to 1000 ug/ml after 4 days with 16 hr photoperiod. Type of data set: functional, organism-based.
In data set [10] the test system is Phytophthora capsici. The data set is described as follows: Insecticidal activity against Phytophthora capsici assessed as inhibition of sporangium production at 500 to 1000 ug/ml after 4 days. It is filed as functional, organism-based.
For data set [11], the system named is Phytophthora capsici. The data set is described as follows: Insecticidal activity against 10^4 spores/ml of Phytophthora capsici in Cucurbita pepo assessed as reduction of disease severity under greenhouse condition at 25 to 50 ug/ml applied as foliar spray after 1 week. Type of data set: functional, organism-based.
Data set [12] deals with Phytophthora capsici. In words: Insecticidal activity against Phytophthora capsici assessed as inhibition of sporangium production after 4 days. Type of data set: functional, organism-based.

As for `CC(N)CC(=O)O` (racemic), the inhibition entry in data set [1], in data set [2] and in [3] was “inactive” throughout. Besides, the Activity entry in data set [4] and in [5] was “Non-toxic” throughout. Further, the outcome in data set [6], in data set [7] and in data set [8] was Active.

As to `O=C(O)c1ccccc1O` [SALICYLIC ACID], the inhibition entry in data set [9] is “Active”. Moreover, the Activity entry in [5] is “Non-toxic”. The result in data set [6] was Active.

`CSC(=O)c1cccc2nnsc12` [ACIBENZOLAR-S-METHYL]: the inhibition result in data set [10] is “Active”. Further, the inhibition entry in [2] and in data set [3] was “inactive” in each case. For the same compound, in data set [4], the Activity result was “Toxic”. Also, the result in data set [6], in data set [11], in data set [7] and in data set [8] was Active.

Turning to `O=C(O)c1cc(Cl)nc(Cl)c1` [2,6-DICHLOROISONICOTINIC ACID], the inhibition result in data set [12] is “Dose-dependent effect”. In addition, the inhibition entry in [9] and in [3] was “Active” each time. In addition, the Activity result in [4] is “Toxic”. Moreover, the outcome in [6], in data set [11], in data set [7] and in [8] was Active.
